{"source": "patent US8664271B2", "about": "“Stabilized leukotriene B4 (LTB4) agent pharmaceutical formulation” (LTB4 Sweden AB, priority 2004, dated 2014)", "key": {"[1]": {"assay": "Stability of aqueous LTB4 Na salt solution at pH 7.4 with or without EDTA (HPLC impurities)", "assay_type": "physicochemical", "conditions": "aqueous solution 5 mg/ml", "experimental": "LTB4 (acid form) was obtained from Cascade Biochem (U.K.) in solution in ethanol/water, 95/5. The purity level of this starting material was about 98.5% (+0.3%) as assessed by reverse phase HPLC. The ethanolic LTB4 solution was neutralized with an equivalent of sodium hydroxide to obtain LTB4 sodium (Na) salt. The ethanolic solution of LTB4 Na salt was evaporated to dryness under reduced pressure using a rotoevaporator and a water bath (30° C.), until an oily residue is obtained. The residue was redisolved in Dulbeccos' phosphate buffered saline (DPBS) at pH 7.4 containing or not, 0.01% ethylenediaminetetraacetic acid (EDTA) to obtain a final concentration of 5 mg LTB4/ml. Solutions were dispensed in 2 ml type I borosilicate glass vials which were then sealed under argon using Teflon-lined rubber stoppers and aluminium caps. The samples were stored in the dark at 25±5° C. until analysis at the indicated time points. Analysis of LTB4 solutions was carried out by reverse phase HPLC using a C18, 5μ particle, 4.7X250 mm column (Nucleosil) and methanol/acetronitrile gradient elution; detection of LTB4 and impurities was performed on line using an HPLC UV spectrophotometer at 270 nm."}, "[2]": {"assay": "Forced degradation (40° C.) of aqueous LTB4 Na salt solutions at different concentrations", "assay_type": "physicochemical", "conditions": "aqueous isotonic pH 7.5, 0.01% EDTA", "experimental": "A solution of LTB4 (acid form) at the concentration of 12 mg/ml in ethanol/water, 95/5 (from Cascade Biochem, U.K.), was neutralized with an equivalent of sodium hydroxide to generate the Na salt. […] The ethanolic solution of LTB4 Na salt was evaporated (see Example 1) until an oily residue is obtained. The residue was then redissolved in a phosphate buffered sodium chloride solution (saline) (30 mM sodium phosphate, pH 7.5) containing 0.01% EDTA in order to obtain an isotonic solution of LTB4 Na salt at 25 mg/ml. LTB4 Na salt solution at 0.1 mg/ml was obtained by dilution of the 25 mg/ml solution with an isotonic 30 mM sodium phosphate buffered saline, pH 7.5 containing 0.01% EDTA. Aliquots of the solutions were dispensed in 2 ml type I glass vials as described in Example 1, and stored under air, in the dark, at 40±5° C. LTB4 and impurities were analyzed at the indicated times by reverse phase HPLC using UV detection at 270 nm."}}, "data": [{"smiles": "CCCCC/C=C\\C[C@@H](O)/C=C/C=C/C=C\\[C@@H](O)CCCC(=O)[O-].[Na+]", "note": "[LTB4 Na salt]", "values": [{"measurement": "impurity level", "setting": "[1]; DPBS pH 7.4, 0.01% EDTA, 60 days of storage at 25° C.", "result": 2.9, "unit": "%"}, {"measurement": "impurity level", "setting": "[1]; DPBS pH 7.4, 0.01% EDTA, 90 days of storage at 25° C.", "result": 8.6, "unit": "%"}, {"measurement": "degradation", "setting": "[1]; DPBS pH 7.4, 0.01% EDTA, up to 14 days of storage at 25° C.", "result": "no increase of degradation"}, {"measurement": "level of impurities", "setting": "[1]; DPBS pH 7.4, no EDTA, 7 days of storage at 25° C.", "result": "increased level of impurities"}, {"measurement": "impurity level", "setting": "[1]; DPBS pH 7.4, no EDTA, 14 days of storage at 25° C.", "result": "23.3 % of LTB4 peak area"}, {"measurement": "stability of 25 mg/ml solution compared with 0.1 mg/ml solution", "setting": "[2]", "result": "much less stable"}]}]}
